In general, pEC50 refers to −log10 of the EC50, conventionally taken in molar units.

pEC50: −log10 of the molar value.

Among the data in patent US9598433B2, “Hepatitis C virus inhibitors” (BRISTOL-MYERS SQUIBB COMPANY, priority 2012, dated 2017) are EC50 values, retold here.

In experiment [1] the test system is HCV genotype 1a (H77 strain) replicon in HUH-7 cells. Briefly: HCV replicon luciferase reporter assay, genotype 1a. In kind it is cell-based. As to conditions: Hepatitis C virus, 72 h, genotype 1a replicon, 3 days incubation, read-out: LE_1a (EC50, range). From the text: (§1) An HCV replicon whole cell system was established as described by Lohmann V, Korner F, Koch J, Herian U, Theilmann L, Bartenschlager R., Science 285(5424):110-3 (1999) and modified to introduce a luciferase reporter, as first described by Krieger et al (Krieger N, Lohmann V, and Bartenschlager R, J. Virol. 75(10):4614-4624 (2001)). CDNA encoding a humanized form of the Renilla luciferase gene and a linker sequence fused directly to the 3′-end of the luciferase gene were introduced into the replicon construct using an Ascl restriction site located in core, directly upstream of the neomycin marker gene. The adaptive mutation at position 1179 (serine to isoleucine) was also introduced (Blight K J, Kolykhalov, A A, Rice, C M, Science 290(5498):1972-1974). A stable cell line constitutively expressing this HCV replicon construct was generated by first linearizing plasmid DNAs with ScaI. RNA transcripts were synthesized in vitro using the T7 MegaScript transcription kit (Ambion, Austin, Tex.) according to manufacturer's directions. In vitro transcripts of the cDNA were transfected into the human hepatoma cell line, HUH-7. […] Resulting cell lines were characterized for positive and negative strand RNA production and protein production over time.
A stable HCV replicon luciferase reporter cell line representing the genotype 1a H77 strain (Yanagi M, Purcell R H, Emerson S U, et al. Transcripts from a single full-length cDNA clone of hepatitis C virus are infectious when directly transfected into the liver of a chimpanzee. Proc Natl Acad Sci USA 1997; 94(16):8738-8743) was generated as described previously for the genotype 1b(Con1) replicon luciferase cell line. The replicon construct was modified by introducing mutations were introduced into the genes encoding the NS3 helicase domain (proline replaced by leucine at position 1496) and NS5A (serine to isoleucine at position 2204) to improve replication in cell culture.
(§2) HCV replicon luciferase assays were developed to monitor the inhibitory effects of compounds described in the disclosure on HCV genotypes 1a and 1b viral replication. HUH-7 cells, constitutively expressing the HCV replicon, were grown in Dulbecco's Modified Eagle Media (DMEM) (Gibco-BRL) containing 10% Fetal calf serum (FCS) (Sigma) and 1 mg/mL G418 (Gibco-BRL). Compounds were serially diluted 3 folds in DMSO for a twenty-point titration and subsequently transferred to sterile 384-well tissue-culture treated plates (Corning cat #3571). The plates were then seeded with 50 μL of cells at a density of 3.0×10^3 cells/well in DMEM containing 4% FCS (final DMSO concentration at 0.5%). After 3 days incubation at 37° C., cells were analyzed for Renilla Luciferase activity using the EnduRen as substrate (Promega cat #E6485). The EnduRen substrate was diluted in DMEM and then added to the plates to a final concentration of 7.5 μM. The plates were incubated for 2 hrs at 37° C. and then read immediately for 30 seconds with Viewlux Imager (PerkinElmer) using a luminescence program. To assess cytotoxicity of compounds, CC50 values were generated by multiplexing the EnduRen-containing plates with Cell Titer-Blue (Promega, cat # G8082). Cell-Titer Blue (3 μL) was added to each well and incubated for 8 hrs at 37° C. The fluorescence signal from each well was read, with an excitation wavelength at 525/10 nm and an emission wavelength of 598/10 nm, using the Viewlux Imager.
(§3) The EC50 values for compounds were calculated by using a four-parameter logistic equation: y=A+((B−A)/(1+((C/x)^D))), where A and B denotes minimal and maximal % inhibition, respectively, C is the EC50, D is the hill slope and x represents compound concentration.
For orientation: Replicon systems follow genome replication, usually without infectious particles.

Experiment [2] relates to HCV genotype 1b (Con1) replicon in HUH-7 cells. Briefly: HCV replicon luciferase reporter assay, genotype 1b. As to conditions: Hepatitis C virus, 72 h, genotype 1b replicon, 3 days incubation, read-out: LE_1b (EC50, range). Type of experiment: cell-based.
Text: as §1, §2, §3

Consider `CC[C@@H]1O[C@H](C)CC/C=C\[C@@H]2C[C@@]2(C(=O)NS(=O)(=O)C2(C)CC2)NC(=O)[C@@H]2C[C@@H](Oc3nc4cc(OC)ccc4nc3C(F)(F)F)CN2C(=O)[C@H]1NC(=O)OC(C)(C)C(F)(F)F` [Compound 1015, 1,1,1-trifluoro-2-methylpropan-2-yl ((2R,6S,7S,9R,13aS,14aR,16aS,Z)-7-ethyl-2-((7-methoxy-3-(trifluoromethyl)quinoxalin-2-yl)oxy)-9-methyl-14a-(((1-methylcyclopropyl)sulfonyl)carbamoyl)-5,16-dioxo-2,3,5,6,7,9,10,11,13a,14,14a,15,16,16a-tetradecahydro-1H-cyclopropa[i]pyrrolo[1,2-e][1,5,8]oxadiazacyclopentadecin-6-yl)carbamate], for which the pEC50 in experiment [1] and in experiment [2] was 9.30 to 10.00 throughout.
Turning to `CC[C@@H]1O[C@H](C)CC/C=C\[C@@H]2C[C@@]2(C(=O)NS(=O)(=O)C2(C)CC2)NC(=O)[C@@H]2C[C@@H](Oc3nc4cc(OC)ccc4nc3C(F)(F)F)CN2C(=O)[C@H]1NC(=O)OC(C)(C)C(C)(F)F` [Compound 1016, 3,3-difluoro-2-methylbutan-2-yl ((2R,6S,7S,9R,13aS,14aR,16aS,Z)-7-ethyl-2-((7-methoxy-3-(trifluoromethyl)quinoxalin-2-yl)oxy)-9-methyl-14a-(((1-methylcyclopropyl)sulfonyl)carbamoyl)-5,16-dioxo-2,3,5,6,7,9,10,11,13a,14,14a,15,16,16a-tetradecahydro-1H-cyclopropa[i]pyrrolo[1,2-e][1,5,8]oxadiazacyclopentadecin-6-yl)carbamate], the pEC50 in experiment [1] and in experiment [2] was 9.30 to 10.00 in each case.
As for `CC[C@@H]1O[C@H](C)CC/C=C\[C@@H]2C[C@@]2(C(=O)NS(=O)(=O)C2(C)CC2)NC(=O)[C@@H]2C[C@@H](Oc3nc4c(c5cc(OC)c(F)cc35)CCCO4)CN2C(=O)[C@H]1NC(=O)OC(C)(C)C(F)(F)F` [Compound 1017, 1,1,1-trifluoro-2-methylpropan-2-yl ((2R,6S,7S,9R,13aS,14aR,16aS,Z)-7-ethyl-2-((8-fluoro-9-methoxy-2,3-dihydro-1H-pyrano[2,3-c]isoquinolin-6-yl)oxy)-9-methyl-14a-(((1-methylcyclopropyl)sulfonyl)carbamoyl)-5,16-dioxo-2,3,5,6,7,9,10,11,13a,14,14a,15,16,16a-tetradecahydro-1H-cyclopropa[i]pyrrolo[1,2-e][1,5,8]oxadiazacyclopentadecin-6-yl)carbamate], the pEC50 in experiment [1] and in experiment [2] was 9.00 to 9.29 each time.
Turning to `CC[C@@H]1O[C@H](C)CC/C=C\[C@@H]2C[C@@]2(C(=O)NS(=O)(=O)C2(C)CC2)NC(=O)[C@@H]2C[C@@H](Oc3cc(OC)nc4cc(OC)c(F)cc34)CN2C(=O)[C@H]1NC(=O)OC(C)(C)C(F)(F)F` [Compound 1018, 1,1,1-trifluoro-2-methylpropan-2-yl ((2R,6S,7S,9R,13aS,14aR,16aS,Z)-7-ethyl-2-((6-fluoro-2,7-dimethoxyquinolin-4-yl)oxy)-9-methyl-14a-(((1-methylcyclopropyl)sulfonyl)carbamoyl)-5,16-dioxo-2,3,5,6,7,9,10,11,13a,14,14a,15,16,16a-tetradecahydro-1H-cyclopropa[i]pyrrolo[1,2-e][1,5,8]oxadiazacyclopentadecin-6-yl)carbamate], the pEC50 in experiment [1] is 8.30 to 9.00; in experiment [2], 9.00 to 9.29.
Regarding `CC[C@@H]1O[C@H](C)CC/C=C\[C@@H]2C[C@@]2(C(=O)NS(=O)(=O)C2(C)CC2)NC(=O)[C@@H]2C[C@@H](Oc3cc(OC)nc4cc(OC)ccc34)CN2C(=O)[C@H]1NC(=O)OC(C)(C)C(F)(F)F` [Compound 1019, 1,1,1-trifluoro-2-methylpropan-2-yl ((2R,6S,7S,9R,13aS,14aR,16aS,Z)-2-((2,7-dimethoxyquinolin-4-yl)oxy)-7-ethyl-9-methyl-14a-(((1-methylcyclopropyl)sulfonyl)carbamoyl)-5,16-dioxo-2,3,5,6,7,9,10,11,13a,14,14a,15,16,16a-tetradecahydro-1H-cyclopropa[i]pyrrolo[1,2-e][1,5,8]oxadiazacyclopentadecin-6-yl)carbamate], the results for the negative logarithm of the EC50 (pEC50) in experiment [1] and in experiment [2] were 8.30 to 9.00 and 9.30 to 10.00, respectively.
For `CC[C@@H]1O[C@H](C)CC/C=C\[C@@H]2C[C@@]2(C(=O)NS(=O)(=O)C2(C)CC2)NC(=O)[C@@H]2C[C@@H](Oc3cc(OC)nc4cc(OC)ccc34)CN2C(=O)[C@H]1NC(=O)OC(C)(C)C(C)(F)F` [Compound 1020, 3,3-difluoro-2-methylbutan-2-yl ((2R,6S,7S,9R,13aS,14aR,16aS,Z)-2-((2,7-dimethoxyquinolin-4-yl)oxy)-7-ethyl-9-methyl-14a-(((1-methylcyclopropyl)sulfonyl)carbamoyl)-5,16-dioxo-2,3,5,6,7,9,10,11,13a,14,14a,15,16,16a-tetradecahydro-1H-cyclopropa[i]pyrrolo[1,2-e][1,5,8]oxadiazacyclopentadecin-6-yl)carbamate], the negative-log EC50 (pEC50) in experiment [1] was 8.30 to 9.00; in experiment [2], 9.00 to 9.29.
As to `COc1ccc2c(O[C@@H]3C[C@H]4C(=O)N[C@]5(C(=O)NS(=O)(=O)C6(C)CC6)C[C@H]5/C=C\CC[C@@H](C)O[C@@H](C)[C@H](NC(=O)OC(C)(C)C(F)(F)F)C(=O)N4C3)nccc2c1` [Compound 2002, 1,1,1-trifluoro-2-methylpropan-2-yl ((2R,6S,7S,9R,13aS,14aR,16aS,Z)-2-((6-methoxyisoquinolin-1-yl)oxy)-7,9-dimethyl-14a-(((1-methylcyclopropyl)sulfonyl)carbamoyl)-5,16-dioxo-2,3,5,6,7,9,10,11,13a,14,14a,15,16,16a-tetradecahydro-1H-cyclopropa[i]pyrrolo[1,2-e][1,5,8]oxadiazacyclopentadecin-6-yl)carbamate], the negative-log EC50 (pEC50) is 9.00 to 9.29 in experiment [1] and 9.30 to 10.00 in experiment [2].
Regarding `COc1cnc(O[C@@H]2C[C@H]3C(=O)N[C@]4(C(=O)NS(=O)(=O)C5(C)CC5)C[C@H]4/C=C\CC[C@@H](C)O[C@@H](C)[C@H](NC(=O)OC(C)(C)C(F)(F)F)C(=O)N3C2)c2ccccc12` [Compound 2003, 1,1,1-trifluoro-2-methylpropan-2-yl ((2R,6S,7S,9R,13aS,14aR,16aS,Z)-2-((4-methoxyisoquinolin-1-yl)oxy)-7,9-dimethyl-14a-(((1-methylcyclopropyl)sulfonyl)carbamoyl)-5,16-dioxo-2,3,5,6,7,9,10,11,13a,14,14a,15,16,16a-tetradecahydro-1H-cyclopropa[i]pyrrolo[1,2-e][1,5,8]oxadiazacyclopentadecin-6-yl)carbamate], the pEC50 in experiment [1] is 9.00 to 9.29; in experiment [2], 9.30 to 10.00.
As for `CCOc1cnc(O[C@@H]2C[C@H]3C(=O)N[C@]4(C(=O)NS(=O)(=O)C5(C)CC5)C[C@H]4/C=C\CC[C@@H](C)O[C@@H](C)[C@H](NC(=O)OC(C)(C)C(F)(F)F)C(=O)N3C2)c2ccccc12` [Compound 2004, 1,1,1-trifluoro-2-methylpropan-2-yl ((2R,6S,7S,9R,13aS,14aR,16aS,Z)-2-((4-ethoxyisoquinolin-1-yl)oxy)-7,9-dimethyl-14a-(((1-methylcyclopropyl)sulfonyl)carbamoyl)-5,16-dioxo-2,3,5,6,7,9,10,11,13a,14,14a,15,16,16a-tetradecahydro-1H-cyclopropa[i]pyrrolo[1,2-e][1,5,8]oxadiazacyclopentadecin-6-yl)carbamate], the pEC50 was 9.00 to 9.29 in experiment [1] and 9.30 to 10.00 in experiment [2].
